# US5876694A, “Azavesamicols” (priority 1997, dated 1999)
# Legend:
# vesicular ACh transport = conditions: earlier studies; cited from earlier work
# vesamicol receptor [1] = conditions: cited from earlier work; for vesamicol receptor affinity (in words): earlier studies
# vesamicol receptor [2] = conditions: rodent brain, cited from earlier work
# vesamicol receptor [3] = experiment: Ex vivo autoradiography of rat brain; assay type: in vivo, male Wistar rats; conditions: 3 hrs after iv
# Description: Ex-vivo Autoradiographic Studies
# Two groups of male Wistar rats (n=2) were used in these experiments. Each animal in the first group received an i.v. injection of (+)-[^125 I]12h (385 uCi in 0.1/ml of 50% aq. EtOH). Similarly, animals in the second group received 330 uCi of (-)-[^125 I]12h (in 0.1 ml of 50% aq. EtOH). After 3 hrs, the animals were sacrificed by decapitation. The brains were carefully removed, embedded in Tissue Tek OCT medium and frozen to […] Twenty micron thick coronal brain slices were subsequently obtained by sectioning rostrocaudally with a Reichert HistoSTAT microtome at -15°. The tissue sections were apposed to Kodak NMC film accompanied by ^125 I-labeled external standards (^125 I-Microscales from Amersham). For delineation of cytoarchitecture, adjacent tissue sections were subjected to Nissl staining.
# [4] = Tissue distribution of radiotracer in rats; assay type: in vivo, male Wistar rats
# Description: Tissue Distribution Experiments
# Four groups of male Wistar rats (n=4) weighing 200-350 g were used in these experiments. Each animal received, while under ether anesthesia, an intravenous injection of the radiotracer (3-5 uCi) dissolved in 0.1 mL of 50% aqueous ethanol. At 5, 30, 60 and 180 min post-injection, blood was collected from the anesthetized animal by cardiac puncture, and the animal was immediately sacrificed by cardiectomy. The organs and tissues of interest were harvested, transferred to preweighed tubes and counted in a Beckman gamma counter. The tubes were subsequently reweighed to give the weight of the corresponding tissues. Preweighed tubes containing 1 mL samples of a 1:100 dilution of the injected dose were also counted and used as reference for calculating the tissue accumulation of radioactivity. The accumulation of radiotracer was expressed as a percentage of injected dose per gram of tissue.
# The animals were injected intravenously with 4.9 uCi of the radiotracer i
# 0.1 ml of 50% aq. EtOH.
# The animals were injected with 3.7 uCi of the radiotracer in 0.1 ml of 50
smiles,measurement,setting,value
O[C@@H]1Cc2ccccc2C[C@H]1N1CCC(c2ccccc2)CC1 (relative stereo) [Compound 2a],inhibition of vesicular ACh transport / activity (in words),vesicular ACh transport,potent inhibitors of vesicular ACh transport
same,vesamicol receptor affinity (in words),vesamicol receptor [1],potent ligands
Nc1cccc2c1C[C@@H](N1CCC(c3ccccc3)CC1)[C@H](O)C2 (relative stereo) [Compound 2b],inhibition of vesicular ACh transport / activity (in words),vesicular ACh transport,potent inhibitors of vesicular ACh transport
same,vesamicol receptor affinity (in words),vesamicol receptor [1],potent ligands
O[C@@H]1CCCC[C@H]1N1CCC(c2ccccc2)CC1 (relative stereo) [[^3 H]vesamicol],cortical [^3 H]vesamicol binding after lesioning a known cholinergic pathway (in words),vesamicol receptor [2]; lesion,significant decrease
same,[^3 H]vesamicol distribution versus other cholinergic markers (in words),vesamicol receptor [2],correlate well with other markers of cholinergic innervation
"OC1CCN(Cc2cccc([125I])c2)CC1N1CCC(c2ccccc2)CC1 (stereo not drawn) [(+)-[^125 I]12h, (+)- and (-)-4-hydroxy-1-(3-[I^125]iodobenzyl)-3-(4-phenyl-piperidinyl)piperidine]","brain regional distribution: cortex, hippocampus and cerebellum",vesamicol receptor [3],Moderate levels of activity
same,"brain regional distribution: interpeduncular nucleus, olfactory tubercle, nucleus accumbens, amygdala, caudate-putamen, nuclei of fifth and seventh cranial nerves",vesamicol receptor [3],high levels of radioactivity
same,Ratio brain/blood,"[4]; 5 min, iv",2.33
same,Ratio heart/blood,"[4]; 5 min, iv",4.68
same,"Tissue distribution, blood","[4]; 5 min, iv",0.24 % dose/g of tissue
same,"Tissue distribution, brain","[4]; 5 min, iv",0.57 % dose/g of tissue
same,"Tissue distribution, gonads","[4]; 5 min, iv",0.13 % dose/g of tissue
same,"Tissue distribution, heart","[4]; 5 min, iv",1.14 % dose/g of tissue
same,"Tissue distribution, kidney","[4]; 5 min, iv",2.25 % dose/g of tissue
same,"Tissue distribution, liver","[4]; 5 min, iv",1.60 % dose/g of tissue
same,"Tissue distribution, lung","[4]; 5 min, iv",3.67 % dose/g of tissue
same,"Tissue distribution, muscle","[4]; 5 min, iv",0.34 % dose/g of tissue
same,"Tissue distribution, spleen","[4]; 5 min, iv",0.76 % dose/g of tissue
same,"Tissue distribution, thyroid","[4]; 5 min, iv",1.60 % dose/g of tissue
same,"radioactivity in liver, heart, thyroid and spleen (in words)","[4]; 5 min, iv",Moderate to low levels
same,radioactivity in lung and kidney (in words),"[4]; 5 min, iv",high levels of radioactivity
same,radioactivity in brain,"[4]; 5 min post-injection, iv",1.06 % of the injected dose
same,Ratio brain/blood,"[4]; 30 min, iv",3.18
same,Ratio heart/blood,"[4]; 30 min, iv",2.33
same,"Tissue distribution, blood","[4]; 30 min, iv",0.12 % dose/g of tissue
same,"Tissue distribution, brain","[4]; 30 min, iv",0.36 % dose/g of tissue
same,"Tissue distribution, gonads","[4]; 30 min, iv",0.15 % dose/g of tissue
same,"Tissue distribution, heart","[4]; 30 min, iv",0.26 % dose/g of tissue
same,"Tissue distribution, kidney","[4]; 30 min, iv",1.32 % dose/g of tissue
same,"Tissue distribution, liver","[4]; 30 min, iv",2.18 % dose/g of tissue
same,"Tissue distribution, lung","[4]; 30 min, iv",1.21 % dose/g of tissue
same,"Tissue distribution, muscle","[4]; 30 min, iv",0.16 % dose/g of tissue
same,"Tissue distribution, spleen","[4]; 30 min, iv",1.07 % dose/g of tissue
same,"Tissue distribution, thyroid","[4]; 30 min, iv",2.33 % dose/g of tissue
same,Ratio brain/blood,"[4]; 60 min, iv",3.08
same,Ratio heart/blood,"[4]; 60 min, iv",1.70
same,"Tissue distribution, blood","[4]; 60 min, iv",0.09 % dose/g of tissue
same,"Tissue distribution, brain","[4]; 60 min, iv",0.27 % dose/g of tissue
same,"Tissue distribution, gonads","[4]; 60 min, iv",0.17 % dose/g of tissue
same,"Tissue distribution, heart","[4]; 60 min, iv",0.15 % dose/g of tissue
same,"Tissue distribution, kidney","[4]; 60 min, iv",0.87 % dose/g of tissue
same,"Tissue distribution, liver","[4]; 60 min, iv",1.91 % dose/g of tissue
same,"Tissue distribution, lung","[4]; 60 min, iv",0.82 % dose/g of tissue
same,"Tissue distribution, muscle","[4]; 60 min, iv",0.11 % dose/g of tissue
same,"Tissue distribution, spleen","[4]; 60 min, iv",0.86 % dose/g of tissue
same,"Tissue distribution, thyroid","[4]; 60 min, iv",4.59 % dose/g of tissue
same,radioactivity in brain,"[4]; 60 min post-injection, iv",0.51 % of the injected dose
same,Ratio brain/blood,"[4]; 180 min, iv",2.35
same,Ratio heart/blood,"[4]; 180 min, iv",1.60
same,"Tissue distribution, blood","[4]; 180 min, iv",0.07 % dose/g of tissue
same,"Tissue distribution, brain","[4]; 180 min, iv",0.15 % dose/g of tissue
same,"Tissue distribution, gonads","[4]; 180 min, iv",0.16 % dose/g of tissue
same,"Tissue distribution, heart","[4]; 180 min, iv",0.10 % dose/g of tissue
same,"Tissue distribution, kidney","[4]; 180 min, iv",0.50 % dose/g of tissue
same,"Tissue distribution, liver","[4]; 180 min, iv",1.18 % dose/g of tissue
same,"Tissue distribution, lung","[4]; 180 min, iv",0.39 % dose/g of tissue
same,"Tissue distribution, muscle","[4]; 180 min, iv",0.08 % dose/g of tissue
same,"Tissue distribution, spleen","[4]; 180 min, iv",0.44 % dose/g of tissue
same,"Tissue distribution, thyroid","[4]; 180 min, iv",13.13 % dose/g of tissue
same,radioactivity in brain,"[4]; 3 hrs post-injection, iv",0.39 % of the injected dose
same,radioactivity in thyroid (in words),[4]; beginning to 3 hrs post-injection,moderate at the beginning but increased significantly by 3 hrs post-injection
OCCN1CCC(c2ccccc2)CC1 [Compound 4a],inhibition of vesicular ACh transport / activity (in words),vesicular ACh transport,substantially diminished activity
CCC(O)CN1CCC(c2ccccc2)CC1 (centres unmarked) [Compound 4b],inhibition of vesicular ACh transport / activity (in words),vesicular ACh transport,substantially diminished activity
same,increase in activity,vesamicol receptor [1]; 4b relative to 4a,30 fold
